US6900189B2, “Analgesic and glucosamine compositions” (priority 2000, dated 2005)
Counter-ions that a name gives are not always drawn. Like-named read-outs stand apart in the source and are kept apart here.

Legend:
[1] = tested on: acetylcholine induced abdominal constriction; test: prevention of acetylcholine induced abdominal constriction in mice; type: in vivo; conditions: for ED50: Mus musculus, 0.5 h, analgesic alone, oral, mice, acetylcholine challenge 30 minutes after treatment
Procedure: Mature, male Swiss-Webster mice (weighing 25-30 g) were utilized in determining the analgesic effects of the compositions. The mice were all dosed orally with glucosamine sulfate, which was completely dissolved in distilled water, and a selected analgesic (ibuprofen, diclofenac, tramadol HCl, or acetaminophen), which was completely dissolved in distilled water or in distilled water containing 2% by volume of TWEEN®-80 containing 100% polysorbate 80. Mice were dosed at 10 mL/kg.
The procedure used in detecting and comparing the analgesic activity of different classes of analgesic drugs was the prevention of acetylcholine induced abdominal constriction in mice.
Mice were treated with various doses of glucosamine sulfate alone, analgesic alone, combined doses of glucosamine sulfate and analgesic, or vehicle such as distilled water containing 2% by volume of TWEEN®-80. Intraperitoneal injection of a challenge dose of acetylcholine bromide was administered 30 minutes after treatment. […] For scoring purposes an “abdominal constriction” was defined as a contraction of the abdominal musculature accompanied by arching of the back and extension of the limbs. […] Each mouse was tested only once.
Doses of the combinations were coded to permit complete randomization of the tests.

[2] = tested on: acetylcholine induced abdominal constriction; test: as above; type: in vivo

With `CC(=O)Nc1ccc(O)cc1` [Acetaminophen] the No. protected/no. tested ([1]; acetaminophen 62.5 mg/kg alone) was 1/10, the No. protected/no. tested ([1]; acetaminophen 125 mg/kg alone) was 4/10 and the No. protected/no. tested ([1]; acetaminophen 250 mg/kg alone) was 8/10.

For `CC(=O)Oc1ccccc1C(=O)O` [Aspirin], the No. protected/no. tested ([2]; ASA 50 mg/kg alone) was 1/10, the No. protected/no. tested ([2]; ASA 100 mg/kg alone) was 4/10 and the No. protected/no. tested ([2]; ASA 150 mg/kg alone) was 8/10. For the same compound, the No. protected/no. tested ([2]; ASA 200 mg/kg alone) was 7/10 and the ED50 [1] was 109 mg/kg.

`O=C(O)Cc1ccccc1Nc1c(Cl)cccc1Cl` [Diclofenac] showed an ED50 [1] of 1.14 mg/kg.

`CC(C)Cc1ccc(C(C)C(=O)O)cc1` (centres unmarked) [Ibuprofen, 2-(p-isobutylphenyl)propionic acid] was tested, and the No. protected/no. tested ([2]; ibuprofen 27.8 mg/kg alone) was 6/10, the No. protected/no. tested ([2]; ibuprofen 30.0 mg/kg alone) was 6/10 and the ED50 [1] was 26.1 ± 3.41 mg/kg. The No. protected/no. tested ([1]; ibuprofen 10 mg/kg alone) was 1/10, the No. protected/no. tested ([1]; ibuprofen 13.91 mg/kg alone) was 1/10 and the No. protected/no. tested ([1]; ibuprofen 20.0 mg/kg alone) was 4/10. The No. protected/no. tested ([1]; ibuprofen 41.74 mg/kg alone) was 8/10 and the No. protected/no. tested ([1]; ibuprofen 100 mg/kg alone) was 9/10.

`COc1ccc2c(c1)c(CC(=O)O)c(C)n2C(=O)c1ccc(Cl)cc1` [Indomethacin] was tested, and the No. protected/no. tested ([2]; indomethacin 2.5 mg/kg alone) was 4/10, the No. protected/no. tested ([2]; indomethacin 5.0 mg/kg alone) was 6/10 and the No. protected/no. tested ([2]; indomethacin 10.0 mg/kg alone) was 7/10. For the same compound, the ED50 [1] was 3.66 mg/kg.

For `CC(C)Cc1ccc([C@H](C)C(=O)O)cc1` [S(+) Ibuprofen], the No. protected/no. tested ([2]; Group A: S(+) ibuprofen 15 mg/kg alone) was 2/10, the No. protected/no. tested ([2]; Group B: S(+) ibuprofen 30 mg/kg alone) was 4/10 and the No. protected/no. tested ([2]; Group C: S(+) ibuprofen 60 mg/kg alone) was 6/10. The No. protected/no. tested ([2]; Group D: S(+) ibuprofen 120 mg/kg alone) was 7/10.

`COc1cccc(C2(O)CCCCC2CN(C)C)c1` (centres unmarked) [Tramadol HCl] was tested, and the ED50 ([2]; Mus musculus, 0.5 h, read-out: ED50 (alone)) was 8.05 mg/kg.
